Laboratory results taken from patent US7825096B2, “O6-alkylguanine-DNA alkyltransferase inactivators and beta-glucuronidase cleavable prodrugs” (The United States of America as represented by the …, priority 2004, dated 2010).
≈ marks a conversion by molar mass, not a printed value. Counter-ions that a name gives are not always drawn.

Key:
[1] = Solubility in water; type: physicochemical; settings: for solubility: water
[2] = tested on: HT29 cells; assay: HT29 cell killing by BCNU after drug pretreatment, colony-forming assay; type: cell-based; settings: for HT29 cell killing by BCNU after prodrug without β-glucuronidase: 5 hr prodrug, no β-glucuronidase, then two-hour 40 μM BCNU; for HT29 cell killing by BCNU after prodrug without β-glucuronidase / HT29 cell killing by BCNU after prodrug with β-glucuronidase: FIG. 3; for HT29 cell killing by BCNU after prodrug with β-glucuronidase: bovine liver β-glucuronidase 20 units/mL of medium, 7 or 14 hr (1), 14 hr (2), then 2 hr 40 μM BCNU
Procedure: HT29 cells were grown in RPMI 1640 medium in the presence of 10% fetal bovine serum. The effect of alkyltransferase inactivators on the sensitivity of cells to BCNU was determined using a colony-forming assay. Cells were plated at a density of 10^6 in 25 cm^2 flasks and 24 h later were incubated with different concentrations of prodrugs for the time indicated before exposure to 40 μM BCNU for 2 hr. For experiments involving β-glucuronidase, the bovine liver protein was added to the cell cultures at 20 units/mL of medium and incubated along with the prodrug. BCNU was dissolved in absolute ethanol at a concentration of 8 mM. It was diluted with the same volume of ice-cold phosphate-buffered saline, and was immediately administered to cells. After two hr, the medium was replaced with fresh medium and the cells were left to grow for an additional 16-18 h. The cells were then replated at densities of 250 cells per 25 cm^2 flask and grown for 8 days until discrete colonies had formed. The colonies were washed with 0.9% saline solution, stained with 0.5% crystal violet in ethanol, and counted. The plating efficiency of cells not treated with drugs was about 50%.

[3] = Stability under acidic conditions; type: physicochemical
[4] = biological target: T1, E. coli β-glucuronidase (Escherichia coli, UniProt P05804); assay: Enzymatic hydrolysis of prodrugs by E. coli β-glucuronidase in MOPS buffer; type: biochemical; settings: 0.2 unit/mL E. coli enzyme, FIG. 1B
T1 construct: purchased Sigma type IX-A
Procedure: (§1) The enzymatic hydrolysis of the prodrugs was investigated with both E. coli and bovine liver β-glucuronidase in MOPS buffer at pH 7.0. Prodrugs and p-nitrobenzyl alcohol (HPLC internal standard) were dissolved in the MOPS buffer (pH 7.0) at 37° C. Enzymatic cleavage was initiated by adding 0.2 Fishman units of E. coli β-glucuronidase (Sigma type IX-A) (42.8 units/mg of protein) or 10 Fishman units of bovine liver β-glucuronidase (Sigma type B-10) (10.2 units/mg of protein) to the incubation buffer. Aliquots (100 μL) of the reaction mixture were withdrawn at various times and were mixed with 100 μL of acetonitrile/0.1 M TEAA (6:4) to quench the enzymatic reaction. Prodrug and product concentrations were determined by HPLC. For determination of enzyme kinetic parameters, prodrug solutions at concentrations between 5 and 300 μM were incubated with a fixed amount of enzyme. Aliquots were withdrawn at time intervals varying from 1 to 20 min and the reactions were quenched as described above. Initial reaction velocities were determined at each substrate concentration. Non-linear regression methods were used to determine KM and Vmax values. Data were processed with Prism 3.0 software.

[5] = Stability (first-order hydrolysis) of prodrugs in aqueous buffers at 37° C., HPLC; type: physicochemical; settings: for Observed first order rate constant for hydrolysis, kTris: 50 mM Tris-HCl (pH 7.5), 5 mM dithiothreitol, 0.1 mM EDTA; for Observed first order rate constant for hydrolysis, kTris / Observed first order rate constant for hydrolysis, kMOPS / Observed first order rate constant for hydrolysis, kDulbecco: 37° C.; for Observed first order rate constant for hydrolysis, kMOPS: 50 mM morpholinopropane sulfonic acid, pH 7.0, 0.01% NaCl; for Observed first order rate constant for hydrolysis, kPBS: Phosphate buffered saline, pH 7.2, 37° C.; for Observed first order rate constant for hydrolysis, kDulbecco: modified Dulbecco's medium
Procedure: Prodrug purity of the prodrugs was determined by HPLC on a Hewlett-Packard LC 1090 Series II system equipped with a Phenomenex 250×4 mm column (5 μm particle size) eluted isocratically at 1 mL/min with acetonitrile/0.1 M triethylammonium acetate (TEAA), pH 7.0, (3:7). Aliquots (100 μL) from prodrug solutions were withdrawn and diluted with 100 μL of a solution of p-nitrobenzyl alcohol (an internal standard) in acetonitrile/0.1 M TEAA (6:4). UV detection was at 254 and 280 nm. Retention times for 1, 2, O^6-benzylguanine, O^6-benzyl-2′-deoxyguanosine and p-nitrobenzyl alcohol were 5.20, 4.97, 7.13, 7.18 and 8.64 min, respectively. All determinations were carried out in duplicate or triplicate.
The stability of the prodrugs was determined in phosphate buffered saline (pH 7.2) (Life Techologie, Inc), a Tris buffer containing 50 mM Tris-HCl (pH 7.5) (Life Technologies, Inc), 5 mM dithiothreitol and 0.1 mM EDTA, a MOPS buffer (pH 7.0) containing 50 mM morpholinopropane sulfonic acid, […] Dulbecco's medium prepared by combining 400 mL of Dulbecco's medium with 7 mL of 7.5% NanCO3, 4 mL of 15 mM glutamine, 2 mL gentamicin and 40 mL of fetal calf serum. Solutions were incubated at 37° C. and prodrug concentrations were analyzed by HPLC at various times as indicated above.
Rate constants for the first-order disappearance of prodrugs were estimated from semi-log plots of the concentration of prodrug as a function of time. The spontaneous rate of liberation, for example, in aqueous solutions, of the AGT inactivator is much lower than the rate for β-glucuronidase catalyzed liberation, for example, about 10 times less, and preferably 100 times less. The spontaneous rate of liberation of the AGT inactivator from the prodrug is low, e.g., about 0.2 to about 0.5% by weight per hour.

[6] = biological target: T2, bovine liver β-glucuronidase (Bos taurus, UniProt A3KMY8); assay: Enzymatic hydrolysis of prodrugs by bovine liver β-glucuronidase in MOPS buffer; type: biochemical; settings: 10 units/mL bovine liver enzyme, FIG. 1A
T2 construct: bovine liver β-glucuronidase (Sigma type B-10) (10.2 units/mg of protein); purchased Sigma type B-10; host or cells: bovine liver
T2 sequence (A3KMY8 1-652): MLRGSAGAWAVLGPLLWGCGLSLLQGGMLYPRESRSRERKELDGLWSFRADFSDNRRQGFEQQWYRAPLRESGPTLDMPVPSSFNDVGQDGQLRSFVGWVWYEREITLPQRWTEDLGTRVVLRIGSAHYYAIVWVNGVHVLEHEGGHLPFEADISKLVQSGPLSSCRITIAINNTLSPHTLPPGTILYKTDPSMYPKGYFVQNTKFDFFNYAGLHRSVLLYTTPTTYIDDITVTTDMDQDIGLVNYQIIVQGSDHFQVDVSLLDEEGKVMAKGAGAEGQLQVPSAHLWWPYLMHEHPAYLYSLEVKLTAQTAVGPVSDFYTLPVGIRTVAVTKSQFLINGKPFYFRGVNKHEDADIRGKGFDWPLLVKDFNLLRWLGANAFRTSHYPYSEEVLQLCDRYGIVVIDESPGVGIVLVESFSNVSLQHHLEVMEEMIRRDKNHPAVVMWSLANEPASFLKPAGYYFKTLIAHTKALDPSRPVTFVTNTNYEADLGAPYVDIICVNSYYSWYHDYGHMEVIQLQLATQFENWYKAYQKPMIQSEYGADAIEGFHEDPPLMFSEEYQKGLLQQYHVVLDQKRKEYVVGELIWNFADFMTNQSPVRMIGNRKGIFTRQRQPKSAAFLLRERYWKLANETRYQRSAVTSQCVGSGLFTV
Procedure: as §1

[7] = biological target: T3, human O^6-alkylguanine-DNA alkyltransferase (Homo sapiens, UniProt P16455); assay: Inactivation of purified recombinant human alkyltransferase (AGT) in vitro, [3H]-methylated DNA substrate; type: biochemical; settings: for IC50: absence of β-glucuronidase, 30 min at 37° C., FIG. 2, read-out: inactivation of human AGT: concentration up to which inactive; for alkyltransferase inactivation in the presence of bovine liver β-glucuronidase: incubation with bovine liver β-glucuronidase (20 or 200 units/mL) for 30 min, FIG. 2A/2B
T3 sequence (P16455 1-207): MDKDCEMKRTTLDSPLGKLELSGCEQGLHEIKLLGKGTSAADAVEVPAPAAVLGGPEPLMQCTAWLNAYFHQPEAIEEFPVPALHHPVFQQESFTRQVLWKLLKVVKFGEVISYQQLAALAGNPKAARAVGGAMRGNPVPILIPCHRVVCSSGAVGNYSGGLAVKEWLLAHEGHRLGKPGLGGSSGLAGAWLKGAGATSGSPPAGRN
Procedure: Purified recombinant human alkyltransferase was incubated with different concentrations of prodrugs in 0.5 mL of reaction buffer (50 mM Tris-HCl, pH 7.6, 0.1 mM EDTA, 5.0 mM dithiothreitol) containing 50 μg of hemocyanin for 30 min at 37° C. For experiments involving β-glucuronidase, the bovine liver protein, prodrugs and alkyltransferase were incubated together in the above hemocyanin-containing buffer for 30 min at 37° C. The remaining alkyltransferase activity was determined after incubation with a [^3H]-methylated calf thymus DNA substrate for 30 min at 37° C. by measuring the [^3H]-methylated methylated protein formed, which was collected on nitrocellulose filters. The results were expressed as the percentage of the alkyltransferase activity remaining.

T1 sequence (P05804 whole entry): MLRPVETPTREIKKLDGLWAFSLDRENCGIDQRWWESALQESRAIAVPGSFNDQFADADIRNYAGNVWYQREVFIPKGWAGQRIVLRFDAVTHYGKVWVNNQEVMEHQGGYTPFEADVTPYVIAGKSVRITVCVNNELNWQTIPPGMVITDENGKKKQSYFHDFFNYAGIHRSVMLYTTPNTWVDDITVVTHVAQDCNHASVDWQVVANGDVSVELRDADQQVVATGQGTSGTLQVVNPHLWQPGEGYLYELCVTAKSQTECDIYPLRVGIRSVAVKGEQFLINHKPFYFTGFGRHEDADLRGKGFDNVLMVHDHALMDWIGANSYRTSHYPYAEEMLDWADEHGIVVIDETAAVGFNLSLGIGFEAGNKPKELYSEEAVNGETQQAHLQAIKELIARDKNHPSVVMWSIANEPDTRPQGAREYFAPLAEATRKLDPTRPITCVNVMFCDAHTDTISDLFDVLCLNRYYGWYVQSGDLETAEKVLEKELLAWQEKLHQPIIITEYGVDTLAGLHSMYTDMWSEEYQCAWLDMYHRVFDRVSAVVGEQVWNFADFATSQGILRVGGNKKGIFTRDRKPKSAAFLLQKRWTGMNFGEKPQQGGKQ

Row | SMILES | solubility [1] | ED90 for HT29 cell killing by 40 μM BCNU following a 2-hr incubation with drug [2] | fold more water soluble than O^6-benzylguanine ([1]; relative to O^6-benzylguanine) | stability under acidic conditions compared with O^6-benzylguanine [3] | hydrolysis by the E. coli enzyme (prodrug disappearance) [4] | Observed first order rate constant for hydrolysis, kTris [5] | Observed first order rate constant for hydrolysis, kMOPS [5] | Observed first order rate constant for hydrolysis, kPBS [5] | average half-time for decomposition ([5]; aqueous buffers of Table 1) | Observed first order rate constant for hydrolysis, kDulbecco [5] | HT29 cell killing by BCNU after prodrug without β-glucuronidase [2] | HT29 cell killing by BCNU after prodrug with β-glucuronidase [2] | hydrolysis by the bovine liver enzyme (prodrug disappearance) [6] | IC50 [7] | alkyltransferase inactivation in the presence of bovine liver β-glucuronidase [7]
1 | NCc1ccc(COc2nc(N)nc3[nH]cnc23)cc1 [Compound 24, O^6-(4-Aminomethylbenzyl)guanine] | > 100 mg/mL | >>5 μM |  |  |  |  |  |  |  |  |  |  |  |  | 
2 | NCc1cccc(COc2nc(N)nc3nc[nH]c23)c1 [Compound 25, O^6-(3-Aminomethylbenzyl)guanine] | > 100 mg/mL | 1.75 µM | at least 700 × | far more stable |  |  |  |  |  |  |  |  |  |  | 
3 | Nc1nc(OCc2ccccc2)c2nc[nH]c2n1 [O^6-benzylguanine, reference compound] | 0.1 mg/mL (≈ 0.415 mM) | 0.75 µM |  |  |  |  |  |  |  |  |  |  |  |  | 
4 | O=C(Nc1nc(OCc2ccccc2)c2nc[nH]c2n1)OCc1ccc(O[C@@H]2O[C@H](C(=O)O)[C@@H](O)[C@H](O)[C@H]2O)c([N+](=O)[O-])c1 [Prodrug 1, O^6-Benzyl-N-[[[[4′-[(-β-D-glucopyranuronosyl)oxy]-3′-nitrophenyl]methyl]oxy]carbonyl]guanine, monosodium salt] |  |  |  |  | rapid disappearance | 4.06e-06 min⁻¹ | 3.77e-06 min⁻¹ | 3.86e-06 min⁻¹ | ~100 days | 7.15e-08 s⁻¹ | quite resistant to killing | greatly sensitized to killing by BCNU | rapid disappearance | > 50 µM | efficient alkyltransferase inactivation
5 | O=C(Nc1nc(OCc2ccccc2)c2ncn([C@H]3C[C@H](O)[C@@H](CO)O3)c2n1)OCc1ccc(O[C@@H]2O[C@H](C(=O)O)[C@@H](O)[C@H](O)[C@H]2O)c([N+](=O)[O-])c1 [Prodrug 2, O^6-Benzyl-N^2-[[[[4″-[(β-D-glucopyranuronosyl)oxy]-3″-nitrophenyl]methyl]oxy]carbonyl]-2′-deoxyguanosine, monosodium salt] |  |  |  |  | rapid disappearance | 1.55e-07 min⁻¹ | 1.88e-07 min⁻¹ | 6.46e-07 min⁻¹ |  | 7.8e-09 s⁻¹ | quite resistant to killing | much greater cell killing by BCNU | rapid disappearance | > 50 µM | efficient alkyltransferase inactivation
